Active and inactive are the calls of the source. Rule as the data show it, for most assays here: actives have a measured EC50 and inactives only a lower limit.
Key:
[1] = DRD fibroblast viability loss – cell-based, non-viral oncogenic, luminescence, dose response (AID 1934); assay type: functional; conditions: Homo sapiens
[2] = target: T1, Replicative DNA helicase DnaB (Mycobacterium tuberculosis, UniProt P9WMR3); test: DnaB intein splicing inhibitors, dose response, biochemical, cell-free fluorescence (AID 449749); assay type: functional
T1 sequence (P9WMR3 whole entry): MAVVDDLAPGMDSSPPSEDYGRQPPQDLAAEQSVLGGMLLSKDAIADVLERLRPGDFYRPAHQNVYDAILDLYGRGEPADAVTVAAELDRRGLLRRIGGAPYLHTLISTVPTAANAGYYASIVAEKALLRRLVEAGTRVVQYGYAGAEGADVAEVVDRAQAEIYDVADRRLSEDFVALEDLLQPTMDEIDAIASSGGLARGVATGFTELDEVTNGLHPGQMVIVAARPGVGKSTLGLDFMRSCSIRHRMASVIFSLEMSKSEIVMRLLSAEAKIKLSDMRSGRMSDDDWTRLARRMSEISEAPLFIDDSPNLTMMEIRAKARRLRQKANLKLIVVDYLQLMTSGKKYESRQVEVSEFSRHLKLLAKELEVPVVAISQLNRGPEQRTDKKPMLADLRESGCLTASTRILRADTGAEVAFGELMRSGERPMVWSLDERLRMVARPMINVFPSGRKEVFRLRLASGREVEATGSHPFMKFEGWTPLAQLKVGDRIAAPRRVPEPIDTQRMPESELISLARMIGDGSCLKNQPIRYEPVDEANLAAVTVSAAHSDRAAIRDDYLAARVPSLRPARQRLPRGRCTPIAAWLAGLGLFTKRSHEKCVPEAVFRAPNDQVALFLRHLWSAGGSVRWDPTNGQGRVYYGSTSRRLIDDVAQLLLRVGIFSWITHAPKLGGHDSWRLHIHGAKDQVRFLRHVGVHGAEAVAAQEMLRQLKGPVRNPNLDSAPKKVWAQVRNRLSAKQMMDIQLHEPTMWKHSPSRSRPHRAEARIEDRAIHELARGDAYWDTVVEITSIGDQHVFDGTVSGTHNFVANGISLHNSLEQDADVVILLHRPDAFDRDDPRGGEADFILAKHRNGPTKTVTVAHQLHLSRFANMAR

Protein RecA = target: T2, Protein RecA (Mycobacterium tuberculosis, UniProt P9WHJ3); test: Fluorescence Cell-Free Homogeneous Dose Retest to Identify Inhibitors of RecA-Intein Splicing Activity. [Related pubchem assays (depositor defined):AID2097, AID2223, AID489010, AID492950]; assay type: functional
T2 sequence (P9WHJ3 whole entry): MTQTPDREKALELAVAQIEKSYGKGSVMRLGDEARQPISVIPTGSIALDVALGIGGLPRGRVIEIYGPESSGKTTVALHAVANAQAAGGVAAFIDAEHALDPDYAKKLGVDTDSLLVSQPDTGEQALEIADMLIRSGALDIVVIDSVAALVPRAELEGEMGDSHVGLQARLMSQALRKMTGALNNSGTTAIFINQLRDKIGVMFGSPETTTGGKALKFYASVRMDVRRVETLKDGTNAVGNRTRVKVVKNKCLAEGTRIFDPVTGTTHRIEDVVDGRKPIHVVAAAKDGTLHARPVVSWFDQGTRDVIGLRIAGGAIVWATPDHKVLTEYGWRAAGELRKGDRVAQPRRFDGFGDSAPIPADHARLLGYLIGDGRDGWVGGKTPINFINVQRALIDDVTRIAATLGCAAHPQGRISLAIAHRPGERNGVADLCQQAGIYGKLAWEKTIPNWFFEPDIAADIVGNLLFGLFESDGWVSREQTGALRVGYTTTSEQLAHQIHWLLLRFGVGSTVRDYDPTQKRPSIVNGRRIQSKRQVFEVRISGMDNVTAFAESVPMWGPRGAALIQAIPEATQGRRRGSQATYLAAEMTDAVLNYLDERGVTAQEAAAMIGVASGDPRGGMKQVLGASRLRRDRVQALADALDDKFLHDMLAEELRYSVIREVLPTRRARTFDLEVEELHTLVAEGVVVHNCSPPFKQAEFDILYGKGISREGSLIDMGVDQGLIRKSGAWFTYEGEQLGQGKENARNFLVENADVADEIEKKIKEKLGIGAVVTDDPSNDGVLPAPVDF

BJ [3] = test: growth inhibition of engineered Ras-driven BJ cells – cell-based, alamar blue fluorescence, cherrypicked samples, dose response (AID 2631); assay type: functional; conditions: Homo sapiens;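 also: confirmatory dose-response assay in RAS-dependent BJ fibroblasts engineered with TERT, LT and ST, with cytotoxicity read by fluorescence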
[4] = Intein inhibitors as potential Tuberculosis drugs, a cytotoxicity screen. [Related pubchem assays (depositor defined):AID2221, AID2223, AID434968, AID435010, AID449749, AID449750, AID489010]; assay type: functional
[5] = microbe, parasite or virus in culture; assay type: functional; conditions: Mycobacterium tuberculosis
BJ [6] = test: BJ-TERT fibroblast viability loss – cell-based, RAS-independent, luminescence, dose response (AID 1933); assay type: functional; conditions: Homo sapiens
BJ [7] = test: BJ-TERT-LT-ST fibroblast viability loss – cell-based, RAS-independent, luminescence, dose response (AID 1935); assay type: functional; conditions: Homo sapiens;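 also: BJ fibroblasts immortalized with TERT plus LT and ST oncogenes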
[8] = target: T3, Heat shock factor protein 1 (Mus musculus, UniProt P38532); test: decrease of HSF1-responsive luciferase luminescence – cell-based, NIH3T3, dose retest, confirmation (AID 2382); assay type: functional;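 also: NIH3T3 fibroblasts with HSF1-driven luciferase reporter stressed by proteasome inhibitor MG132; luminescence from HSF1-driven luciferase expression after 8 hours of MG132 stress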
T3 sequence (P38532 whole entry): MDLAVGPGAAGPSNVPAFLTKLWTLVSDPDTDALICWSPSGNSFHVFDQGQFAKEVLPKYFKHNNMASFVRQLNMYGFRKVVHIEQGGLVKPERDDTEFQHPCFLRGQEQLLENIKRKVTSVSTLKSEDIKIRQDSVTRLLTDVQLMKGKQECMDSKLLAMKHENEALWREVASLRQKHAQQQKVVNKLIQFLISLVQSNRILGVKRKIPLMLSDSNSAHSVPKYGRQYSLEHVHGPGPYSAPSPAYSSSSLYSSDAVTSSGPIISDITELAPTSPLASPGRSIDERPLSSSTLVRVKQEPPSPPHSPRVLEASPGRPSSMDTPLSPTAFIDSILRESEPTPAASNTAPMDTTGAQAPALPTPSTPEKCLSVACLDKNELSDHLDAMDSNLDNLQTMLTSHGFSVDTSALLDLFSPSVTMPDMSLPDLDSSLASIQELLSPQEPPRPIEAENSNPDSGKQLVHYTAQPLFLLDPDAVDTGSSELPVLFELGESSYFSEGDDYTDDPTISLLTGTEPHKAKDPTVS

BJ [9] = test: cells; assay type: functional, cell-based; conditions: Homo sapiens
[10] = Luminescence Cell-Based Dose Response HTS to Identify Inhibitors of 5'UTR Stem-Loop Driven Prion Protein mRNA Translation in H4 Neuroglioblastoma Cells. [Related pubchem assays: 1827 (Project Summary), 1813 (Primary HTS)]; assay type: functional
[11] = Western Blot Cell-Based Dose Response to Identify Inhibitors of […] Alpha-Synuclein Translation in H4 Cells. [Related pubchem assays: 1827 (Project Summary), 1813 (Primary HTS)]
[12] = alpha-synuclein stem-loop luciferase translation blockers – H4 neuroglioma cells, luminescence, confirmation (AID 1988); assay type: functional, cell-based
[13] = Luminescence Cell-Based Dose HTS Response to Identify Inhibitors of 5'UTR Stem-Loop Driven Prion Protein mRNA Translation in H4-C Neuroglioblastoma Cells. [Related pubchem assays (depositor defined):AID1814, AID1827]; assay type: functional
[14] = Luminescence Cell-Based Dose Response HTS to Identify Inhibitors of Luciferase Translation or Activity in H4-C Neuroglioblastoma Cells. [Related pubchem assays: 1813 (Primary HTS), 1827 (Project Summary)]; assay type: functional
[15] = Luminescence Cell-Based Dose Retest to Confirm Activators of 5'UTR Stem-Loop Driven Alpha-Synuclein mRNA Translation in H4 Neuroglioblastoma Cells. [Related pubchem assays (depositor defined):AID1813, AID1829]; assay type: functional
[16] = luciferase reporter signal suppression in cells – H4 neuroglioma cells, luminescence, dose response (AID 1990); assay type: functional, cell-based
[17] = Luminescence Cell-Based Dose Confirmation HTS to Identify Inhibitors of 5'UTR Stem-Loop Driven Alpha-Synuclein mRNA Translation in H4 Neuroglioblastoma Cells. [Related pubchem assays: 1827 (Project Summary), 1813 (Primary HTS)]; assay type: functional
[18] = ELISA Cell-Based Dose Response to Identify Inhibitors of Alpha-Synuclein Translation in SH-SY5Y Cells. [Related pubchem assays: 1813 (Primary HTS), 1827 (Project Summary)]; assay type: functional
[19] = target: T3, Heat shock factor protein 1; test: enhancement of HSF1-driven luciferase signal – cell-based, NIH3T3, luminescence, dose retest, confirmation (AID 435004); assay type: functional;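 also: stress induced by proteasome inhibitor MG132 added 30 min after compound; luciferase reporter driven by HSF1 response element in NIH3T3 cells; actives raise luminescence as potentiators of the MG132 stress response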
[20] = target: T4, Runt-related transcription factor 1/Core-binding factor subunit beta (Homo sapiens, UniProt Q01196+Q13951); test: Runt domain/CBFb-SMMHC interaction disruptors – biochemical, TR-FRET (AID 1438); assay type: protein assay
T4 sequence (Q01196 whole entry, the tested form may be a part): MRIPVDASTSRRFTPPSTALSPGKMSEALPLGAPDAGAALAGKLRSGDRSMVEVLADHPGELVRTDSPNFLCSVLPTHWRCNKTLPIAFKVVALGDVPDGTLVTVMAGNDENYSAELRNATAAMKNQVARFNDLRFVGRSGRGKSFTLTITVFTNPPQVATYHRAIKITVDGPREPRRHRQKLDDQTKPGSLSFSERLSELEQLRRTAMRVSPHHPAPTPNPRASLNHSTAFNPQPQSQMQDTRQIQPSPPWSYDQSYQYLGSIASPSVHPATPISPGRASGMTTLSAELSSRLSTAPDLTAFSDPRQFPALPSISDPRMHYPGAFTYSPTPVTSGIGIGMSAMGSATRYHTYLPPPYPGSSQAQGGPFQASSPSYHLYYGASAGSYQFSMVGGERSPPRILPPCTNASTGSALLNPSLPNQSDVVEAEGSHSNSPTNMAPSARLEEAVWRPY
T4 sequence (Q13951 whole entry, the tested form may be a part): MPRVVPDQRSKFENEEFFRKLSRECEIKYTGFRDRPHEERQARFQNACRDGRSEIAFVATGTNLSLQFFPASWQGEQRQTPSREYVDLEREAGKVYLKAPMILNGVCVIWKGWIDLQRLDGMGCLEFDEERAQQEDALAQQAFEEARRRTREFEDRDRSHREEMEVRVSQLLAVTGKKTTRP

[21] = target: T4, Runt-related transcription factor 1/Core-binding factor subunit beta; test: disruptors of Runt domain/CBFb-SMMHC interaction – biochemical, FRET, Cerulean-Runt, Venus-CBFb-SMMHC, uHTS, […] (AID 1434); assay type: protein assay

For `COc1cc2c(cc1OC)C(c1cc(Br)ccc1F)N(C(=O)CCl)CC2` (configuration not stated), the EC50 [1] was 5.12 µM (active), the AC50 [2] was 4.29 µM (active) and the EC50 (Protein RecA) was 0.8 µM (active). For the same compound, the EC50 (BJ [3]) was 1.41 µM (active), the CC50 [4] was 4.2 µM (active) and the CC50 [5] was 5.64 µM (active). For the same compound, the EC50 (BJ [6]) was 2.7 µM (inconclusive), the EC50 (BJ [7]) was 5.02 µM (inconclusive) and the EC50 [8] was 3.09 µM (active). The EC50 (BJ [9]) was 6.1 µM (active).
For `CN(C)c1nc(N)nc(CSc2nnnn2-c2cccc3ccccc23)n1`, the EC50 [10] was > 120 µM (not active), the EC50 [11] was < 1 µM (active) and the EC50 [12] was 3.5 µM (active). The EC50 [13] was > 195 µM (inactive), the EC50 [14] was > 195 µM (not active) and the EC50 [15] was 1.81 µM (inconclusive). For the same compound, the EC50 [16] was > 120 µM (not active), the EC50 [17] was 1.81 µM (active) and the EC50 [18] was < 0.006 µM (active). For the same compound, the EC50 [19] was > 260 µM (inactive).
In the case of `COC(=O)C1=C(CSc2nc3c(cc2C#N)CN(C)CC3)OC(N)=C(C#N)C1c1ccccc1F` (configuration not stated), the IC50 [20] is reported as 60.9 µM (inactive) and the IC50 [21] is reported as > 100 µM (inactive).
